{"source": "patent US20170165259A1", "about": "“COMBINED MODULATION OF IRE1” (THE REGENTS OF THE UNIVERSITY OF CALIFORNIA, priority 2014, published 2017)", "assay_type_in_all_cases": "cell-based, rat", "key": {"endogenous IRE1α [1]": {"tested_on": "endogenous IRE1α", "assay": "XBP1 mRNA splicing in INS-1 cells under ER stress", "settings": "thapsigargin (Tg) 6 nM", "protocol": "(§1) FIGS. 5A-5E. […] (FIG. 5C) EtBr-stained agarose gel of XBP1 complementary DNA (cDNA) amplicons from the INS-1 cells described in (B).\n(§2) To further explore how IRE1α modulators affect the kinase and RNase activities of endogenous IRE1α under ER stress, in vivo studies using INS-1 rat insulinoma cell lines, which are derived from insulin-producing pancreatic β-cell tumors and contain large well-developed ERs, were conducted."}, "INS-1 cells": {"tested_on": "INS-1 cells", "assay": "Annexin V apoptosis of INS-1 cells under ER stress", "protocol": "FIGS. 19A-19D. KIRA6 inhibits Terminal UPR outputs of IRE1α to protect against ER stress-induced apoptosis. […] (FIG. 19B) Q-PCR for Ins1 mRNA in INS-1 IRE1α (WT) cells treated with Dox (5 ng/ml)−/+STF-083010 (50 M) over the indicated timecourse. (FIG. 19C) Annexin V staining of INS-1 cells after 72 hr with indicated [Tm]−/+STF-083010 (50 M). (FIG. 19D) Annexin V staining of INS-1 cells after 72 hr with Tm (0.2 μg/ml), STF-083010 (1 or 5 M), and KIRA6 (0.05 M) as indicated. Data plotted as mean+/−SD. P-values: *<0.05, **<0.01, ***<0.005.\nFor assaying apoptosis by Annexin V staining, cells were plated in 12-well plates overnight. Cells were then treated with various reagents for indicated time periods. On the day of flow cytometry analysis, cells were trypsinized and washed in PBS and resuspended in Annexin V binding buffer with Annexin-V FITC (BD Pharmingen™). Flow cytometry was performed on a Becton Dickinson LSRII flow cytometer."}, "endogenous IRE1α [2]": {"tested_on": "endogenous IRE1α", "assay": "IRE1α auto-phosphorylation immunoblot in INS-1 cells under ER stress", "settings": "ER stress (Tg)", "protocol": "as §1, §2\nFor protein analysis, cells were lysed in M-PER buffer (Thermo Scientific) plus complete EDTA-free protease inhibitor (Roche) and phosphatase inhibitor cocktail (Sigma). The concentration of samples was determined using BCA Protein Assay (Thermo). […] Gels were run using MES buffer and transferred onto nitrocellulose transfer membrane using an XCell II™ Blot Module. Blocking, antibody incubation, and washing were done in PBS or TBS with 0.05% Tween-20 (v/v) and 5% (w/v) non-fat dry milk or BSA, or blocking buffer (Licor-Odyssey). Antibodies used were: mouse anti-Actin (Sigma-Aldrich); rabbit anti-cleaved Caspase-2 (Abcam); mouse anti-GAPDH, anti-c-Myc, anti-rabbit, anti-proinsulin, and anti-IRE1α (Santa Cruz Biotechnology); anti-phospho-IRE1α and anti-full length Caspase-2 (Novus Biologicals); and rabbit anti-Caspase-3, anti-JNK, anti-eIF2a, anti-phospho-eIF2a, and mouse anti-phospho-JNK (Cell Signaling). Antibody binding was detected by using near-infrared-dye-conjugated secondary antibodies (Licor) on the LI-COR Odyssey scanner or visualized by capturing on a CL-XPosure film using ECL SuperSignal West Dura Extended Duration Substrate (both from Thermo Scientific)."}, "IRE1α (WT)": {"tested_on": "IRE1α (WT)", "assay": "Dox-induced IRE1α (WT) hyperactivation in INS-1 stable lines", "settings": "STF-083010 at 50 µM", "description": "These aforementioned terminal UPR signaling events can be completely mimicked simply by controlled over-expression of IRE1α, in the complete absence of upstream ER stress. Tetracycline-inducible isogenic INS-1 stable cell lines expressing WT IRE1α were generated. Induced with doxycycline (dox) the transgenic IRE1α proteins oligomerize, spontaneously trans-autophosphorylate and trigger XBP1 mRNA splicing. The transgenic systems are finely tuneable, with increasing [Dox] causing progressively greater IRE1α induction (the transgenic IRE1α protein is Myc-tagged). Phospho/Myc IRE1α ratios are finely controllable (and measureable) with increasing [Dox], as is XBP1 mRNA splicing. […] These include reduction of miR-17 and Ins1 mRNA, induction of CHOP mRNA, induction and proteolytic cleavage of caspases 1,2, and 3, and apoptosis as measured by Annexin-V staining. […]\nFor protein analysis, cells were lysed in M-PER buffer (Thermo Scientific) plus complete EDTA-free protease inhibitor (Roche) and phosphatase inhibitor cocktail (Sigma). The concentration of samples was determined using BCA Protein Assay (Thermo). […] Antibody binding was detected by using near-infrared-dye-conjugated secondary antibodies (Licor) on the LI-COR Odyssey scanner or visualized by capturing on a CL-XPosure film using ECL SuperSignal West Dura Extended Duration Substrate (both from Thermo Scientific)."}}}
{"compound": "O=S(=O)(N=Cc1c(O)ccc2ccccc12)c1cccs1", "note": "[STF-083010, N-[(2-Hydroxy-1-naphthalenyl)methylene]-2-thiophenesulfonamide, reference compound]", "values": [{"measurement": "XBP1 mRNA splicing (IRE1α RNase activity) in INS-1 cells", "setting": "endogenous IRE1α [1]", "value": "inhibits XBP1 splicing in a dose-dependent manner"}, {"measurement": "cytoprotection under Tm, single agent at the dose of the combination", "setting": "INS-1 cells; STF-083010 1 M or KIRA6 50 nM alone", "value": "sub-therapeutic individually"}, {"measurement": "apoptosis by Tm", "setting": "INS-1 cells; STF-083010 at 50 µM", "value": "decreases"}, {"measurement": "endogenous IRE1α auto-phosphorylation in INS-1 cells", "setting": "endogenous IRE1α [2]", "value": "does not prevent IRE1α auto-phosphorylation"}, {"measurement": "endogenous IRE1α auto-phosphorylation in INS-1 cells", "setting": "endogenous IRE1α [2]; listed as STF", "value": "does not inhibit IRE1α auto-phosphorylation"}, {"measurement": "Ins1 mRNA decay under IRE1α hyperactivation", "setting": "IRE1α (WT)", "value": "decreases Ins1 mRNA decay under IRE1α hyperactivation"}]}
